# Results published in PubChem BioAssay AID1963840 (Molecular Pharmacology Branch, DTP, NCI, 2024).
# System: 695427-040-R-J1-PDC complex spheroid viability
# Test: Anticancer human tumor 695427-040-R-J1-PDC patient-derived colon adenocarcinoma cell line growth inhibition [POLQ]
# Settings: for IC50: curve of first compound; for viability, T/C: stronger effect = lower value
# Summary of the method: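 PDC + HUVEC + MSC complex spheroids; POLQ inhibitors ± partner drugs; top conc. at/near clinical Cmax, else 10 microM (SN-38 1 microM), half-log dilutions; 37 degrees C, 5% CO2.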
# [1] = second compound 0.0316 µM, first compound 0.0316 µM
# [2] = second compound 0.0316 µM, first compound 0.1 µM
# [3] = second compound 0.0316 µM, first compound 0.316 µM
# [4] = second compound 0.0316 µM, first compound 1 µM
# [5] = second compound 0.0316 µM, first compound 3.16 µM
# [6] = second compound 0.0316 µM, first compound 10 µM
# [7] = second compound 0.1 µM, first compound 0.0316 µM
# [8] = second compound 0.1 µM, first compound 0.1 µM
# [9] = second compound 0.1 µM, first compound 0.316 µM
# [10] = second compound 0.1 µM, first compound 1 µM
# [11] = second compound 0.1 µM, first compound 3.16 µM
# [12] = second compound 0.1 µM, first compound 10 µM
# [13] = second compound 0.316 µM, first compound 0.0316 µM
# [14] = second compound 0.316 µM, first compound 0.1 µM
# [15] = second compound 0.316 µM, first compound 0.316 µM
# [16] = second compound 0.316 µM, first compound 1 µM
# [17] = second compound 0.316 µM, first compound 3.16 µM
# [18] = second compound 0.316 µM, first compound 10 µM
# [19] = second compound 1 µM, first compound 0.0316 µM
# [20] = second compound 1 µM, first compound 0.1 µM
# [21] = second compound 1 µM, first compound 0.316 µM
# [22] = second compound 1 µM, first compound 1 µM
# [23] = second compound 1 µM, first compound 3.16 µM
# [24] = second compound 1 µM, first compound 10 µM
# [25] = second compound 3.16 µM, first compound 0.0316 µM
# [26] = second compound 3.16 µM, first compound 0.1 µM
# [27] = second compound 3.16 µM, first compound 0.316 µM
# [28] = second compound 3.16 µM, first compound 1 µM
# [29] = second compound 3.16 µM, first compound 3.16 µM
# [30] = second compound 3.16 µM, first compound 10 µM
# [31] = second compound 10 µM, first compound 0.0316 µM
# [32] = second compound 10 µM, first compound 0.1 µM
# [33] = second compound 10 µM, first compound 0.316 µM
# [34] = second compound 10 µM, first compound 1 µM
# [35] = second compound 10 µM, first compound 3.16 µM
# [36] = second compound 10 µM, first compound 10 µM
# 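Note: spheroids exposed to compounds for seven days.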
# 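Throughout, for viability, T/C: 100% = DMSO vehicle control viability.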
smiles,measurement,setting,value
CCc1cc2c(N3CCc4c(cc(Cn5ccnc5)cc4-c4cn(C)nc4C(F)(F)F)C3=O)cc(C)nc2c(OC)n1 + COC1C(OC(N)=O)C(O)C(Oc2ccc3c(O)c(NC(=O)c4ccc(O)c(CC=C(C)C)c4)c(=O)oc3c2C)OC1(C)C,IC50,second compound 0.0316 µM,> 10 µM
same,IC50,second compound 0.1 µM,> 10 µM
same,IC50,second compound 0.316 µM,> 10 µM
same,IC50,second compound 1 µM,> 10 µM
same,IC50,second compound 3.16 µM,> 10 µM
same,IC50,second compound 10 µM,> 10 µM
same,"viability, T/C",[1],106%
same,"viability, T/C",[2],103%
same,"viability, T/C",[3],111%
same,"viability, T/C",[4],107%
same,"viability, T/C",[5],108%
same,"viability, T/C",[6],99.1%
same,"viability, T/C",[7],114%
same,"viability, T/C",[8],104%
same,"viability, T/C",[9],105%
same,"viability, T/C",[10],96.5%
same,"viability, T/C",[11],111%
same,"viability, T/C",[12],117%
same,"viability, T/C",[13],107%
same,"viability, T/C",[14],112%
same,"viability, T/C",[15],106%
same,"viability, T/C",[16],109%
same,"viability, T/C",[17],110%
same,"viability, T/C",[18],97.8%
same,"viability, T/C",[19],108%
same,"viability, T/C",[20],108%
same,"viability, T/C",[21],105%
same,"viability, T/C",[22],101%
same,"viability, T/C",[23],120%
same,"viability, T/C",[24],99.3%
same,"viability, T/C",[25],117%
same,"viability, T/C",[26],109%
same,"viability, T/C",[27],113%
same,"viability, T/C",[28],105%
same,"viability, T/C",[29],115%
same,"viability, T/C",[30],97.3%
same,"viability, T/C",[31],116%
same,"viability, T/C",[32],118%
same,"viability, T/C",[33],110%
same,"viability, T/C",[34],109%
same,"viability, T/C",[35],117%
same,"viability, T/C",[36],122%
CCc1cc2c(N3CCc4c(cc(Cn5ccnc5)cc4-c4cn(C)nc4C(F)(F)F)C3=O)ccnc2c(OC)n1 + COC1C(OC(N)=O)C(O)C(Oc2ccc3c(O)c(NC(=O)c4ccc(O)c(CC=C(C)C)c4)c(=O)oc3c2C)OC1(C)C,IC50,second compound 0.0316 µM,> 10 µM
same,IC50,second compound 0.1 µM,> 10 µM
same,IC50,second compound 0.316 µM,> 10 µM
same,IC50,second compound 1 µM,> 10 µM
same,IC50,second compound 3.16 µM,> 10 µM
same,IC50,second compound 10 µM,> 10 µM
same,"viability, T/C",[1],110%
same,"viability, T/C",[2],111%
same,"viability, T/C",[3],106%
same,"viability, T/C",[4],116%
same,"viability, T/C",[5],114%
same,"viability, T/C",[6],97.2%
same,"viability, T/C",[7],111%
same,"viability, T/C",[8],103%
same,"viability, T/C",[9],115%
same,"viability, T/C",[10],109%
same,"viability, T/C",[11],116%
same,"viability, T/C",[12],105%
same,"viability, T/C",[13],111%
same,"viability, T/C",[14],116%
same,"viability, T/C",[15],108%
same,"viability, T/C",[16],101%
same,"viability, T/C",[17],109%
same,"viability, T/C",[18],95.6%
same,"viability, T/C",[19],116%
same,"viability, T/C",[20],112%
same,"viability, T/C",[21],109%
same,"viability, T/C",[22],98.3%
same,"viability, T/C",[23],111%
same,"viability, T/C",[24],101%
same,"viability, T/C",[25],103%
same,"viability, T/C",[26],104%
same,"viability, T/C",[27],107%
same,"viability, T/C",[28],105%
same,"viability, T/C",[29],117%
same,"viability, T/C",[30],101%
same,"viability, T/C",[31],111%
same,"viability, T/C",[32],92.7%
same,"viability, T/C",[33],108%
same,"viability, T/C",[34],106%
same,"viability, T/C",[35],113%
same,"viability, T/C",[36],96.3%
COc1cc2cc(C(=O)CCC(=O)O)sc2cc1OC + COC1C(OC(N)=O)C(O)C(Oc2ccc3c(O)c(NC(=O)c4ccc(O)c(CC=C(C)C)c4)c(=O)oc3c2C)OC1(C)C,IC50,second compound 0.0316 µM,> 10 µM
same,IC50,second compound 0.1 µM,> 10 µM
same,IC50,second compound 0.316 µM,> 10 µM
same,IC50,second compound 1 µM,> 10 µM
same,IC50,second compound 3.16 µM,> 10 µM
same,IC50,second compound 10 µM,> 10 µM
same,"viability, T/C",[1],98.3%
same,"viability, T/C",[2],86.9%
same,"viability, T/C",[3],101%
same,"viability, T/C",[4],104%
same,"viability, T/C",[5],112%
same,"viability, T/C",[6],107%
same,"viability, T/C",[7],117%
same,"viability, T/C",[8],103%
same,"viability, T/C",[9],106%
same,"viability, T/C",[10],99.2%
same,"viability, T/C",[11],109%
same,"viability, T/C",[12],103%
same,"viability, T/C",[13],108%
same,"viability, T/C",[14],105%
same,"viability, T/C",[15],99.8%
same,"viability, T/C",[16],107%
same,"viability, T/C",[17],101%
same,"viability, T/C",[18],99.3%
same,"viability, T/C",[19],104%
same,"viability, T/C",[20],109%
same,"viability, T/C",[21],100%
same,"viability, T/C",[22],106%
same,"viability, T/C",[23],101%
same,"viability, T/C",[24],103%
same,"viability, T/C",[25],102%
same,"viability, T/C",[26],94.2%
same,"viability, T/C",[27],97.4%
same,"viability, T/C",[28],106%
same,"viability, T/C",[29],103%
same,"viability, T/C",[30],93.8%
same,"viability, T/C",[31],102%
same,"viability, T/C",[32],102%
same,"viability, T/C",[33],114%
same,"viability, T/C",[34],120%
same,"viability, T/C",[35],104%
same,"viability, T/C",[36],109%
